Experimental data: US9834554B2, “BTK inhibitors” (MERCK SHARP & DOHME CORP., priority 2013, dated 2017)
pIC50: −log10 of the molar value.

Each molecule was assayed against BTK enzyme (recombinant full-length BTK, hBTK) (Homo sapiens (Human), UniProt Q06187) (assay: Btk enzyme activity assay, LANCE TR-FRET). Details: not given.
Sequence of BTK enzyme (recombinant full-length BTK, hBTK) (Q06187 whole entry): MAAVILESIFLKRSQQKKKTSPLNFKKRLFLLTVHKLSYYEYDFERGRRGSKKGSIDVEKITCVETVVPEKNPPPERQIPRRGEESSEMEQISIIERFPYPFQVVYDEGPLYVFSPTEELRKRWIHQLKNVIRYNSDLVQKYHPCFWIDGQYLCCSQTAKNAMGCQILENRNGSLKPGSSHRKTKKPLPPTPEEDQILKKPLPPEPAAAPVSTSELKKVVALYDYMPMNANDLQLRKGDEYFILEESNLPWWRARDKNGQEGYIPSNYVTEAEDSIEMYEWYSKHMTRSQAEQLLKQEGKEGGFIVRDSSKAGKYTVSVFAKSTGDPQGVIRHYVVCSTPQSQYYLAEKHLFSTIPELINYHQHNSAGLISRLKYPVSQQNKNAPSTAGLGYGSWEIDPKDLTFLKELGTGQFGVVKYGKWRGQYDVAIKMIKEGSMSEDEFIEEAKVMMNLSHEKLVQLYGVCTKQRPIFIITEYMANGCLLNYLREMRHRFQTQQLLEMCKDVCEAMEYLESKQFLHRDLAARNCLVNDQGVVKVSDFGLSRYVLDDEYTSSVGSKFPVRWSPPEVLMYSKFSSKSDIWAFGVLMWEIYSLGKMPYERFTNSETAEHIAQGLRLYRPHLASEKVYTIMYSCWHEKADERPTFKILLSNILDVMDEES

pIC50 | Structure (SMILES)
8.66 | N#CC1(C(=O)N2CCC[C@@H](c3nn(-c4ccc(C(=O)Nc5cc(C(F)(F)F)ccn5)cc4)c4c(N)nccc34)C2)CC1 [Example 27, 4-(7-amino-3-{(3R)-1-[(1-cyanocyclopropyl)carbonyl]piperidin-3-yl}-1H-pyrazolo[3,4-c]pyridin-1-yl)-N-[4-(trifluoromethyl)pyridin-2-yl]benzamide]

Same assay, conditions: read-out: BTK binding IC50; 50 pM hBTK, 2 μM biotin-A5-peptide, 25 μM ATP; 60 minute compound & enzyme incubation

pIC50 | Structure (SMILES)
8.43 | COCC(=O)N1CCO[C@@H](c2nn(-c3ccc(C(=O)Nc4cc(C(F)(F)F)ccn4)cc3)c3c(N)nccc23)C1 [Example 5, 4-{7-amino-3-[(2R)-4-(methoxyacetyl)morpholin-2-yl]-1H-pyrazolo[3,4-c]pyridin-1-yl}-N-[4-(trifluoromethyl)pyridin-2-yl]benzamide]
8.68 | COc1cc(C(=O)Nc2cccc(C(F)(F)F)c2)ccc1-n1nc([C@@H]2CC[C@H](C)N(C(=O)C3CC3)C2)c2ccnc(N)c21 [Example 37, 4-(7-amino-3-((3R,6S)-1-(cyclopropanecarbonyl)-6-methylpiperidin-3-yl)-1H-pyrazolo[3,4-c]pyridin-1-yl)-3-methoxy-N-(3-(trifluoromethyl)phenyl)benzamide]
8.92 | CC(C)C(=O)N1CCC[C@@H](c2nn(-c3ccc(C(=O)Nc4cc(C(F)(F)F)ccn4)cc3)c3c(N)nccc23)C1 [Example 19, 4-{7-amino-3-[(3R)-1-(2-methylpropanoyl)piperidin-3-yl]-1H-pyrazolo[3,4-c]pyridin-1-yl}-N-[4-(trifluoromethyl)pyridin-2-yl]benzamide]
9.01 | C[C@H]1CC[C@@H](c2nn(-c3ccc(C(=O)Nc4cc(C5CC5)ccn4)cc3)c3c(N)nccc23)CN1C(=O)C1(C)COC1 [Example 30, 4-(7-amino-3-((3R,6S)-6-methyl-1-(3-methyloxetane-3-carbonyl)piperidin-3-yl)-1H-pyrazolo[3,4-c]pyridin-1-yl)-N-(4-cyclopropylpyridin-2-yl)benzamide]
8.80 | Nc1nccc2c([C@@H]3CCCN(C(=O)C4CCC4)C3)nn(-c3ccc(C(=O)Nc4cc(C(F)(F)F)ccn4)cc3)c12 [Example 20, 4-{7-amino-3-[(3R)-1-(cyclobutylcarbonyl)piperidin-3-yl]-1H-pyrazolo[3,4-c]pyridin-1-yl}-N-[4-(trifluoromethyl)pyridin-2-yl]benzamide]
8.96 | COc1cc(C(=O)Nc2cc(C(F)(F)F)ccn2)ccc1-n1nc([C@@H]2CC[C@H]3CCC(=O)N3C2)c2ccnc(N)c21 [Example 40, 4-{7-amino-3-[(6R,8aS)-3-oxooctahydroindolizin-6-yl]-1H-pyrazolo[3,4-c]pyridin-1-yl}-3-methoxy-N-[4-(trifluoromethyl)pyridin-2-yl] benzamide]
9.09 | CC1(C(=O)N2CCC[C@@H](c3nn(-c4ccc(C(=O)Nc5cc(C(F)(F)F)ccn5)cc4)c4c(N)nccc34)C2)CC1 [Example 26, 4-(7-amino-3-{(3R)-1-[(1-methylcyclopropyl)carbonyl]piperidin-3-yl}-1H-pyrazolo[3,4-c]pyridin-1-yl)-N-[4-(trifluoromethyl)pyridin-2-yl]benzamide]
9.07 | Nc1nccc2c([C@@H]3CCCN(C(=O)C4CC4)C3)nn(-c3ccc(C(=O)Nc4cc(C(F)(F)F)ccn4)cc3)c12 [Example 24, 4-{7-amino-3-[(3R)-1-(cyclopropylcarbonyl)piperidin-3-yl]-1H-pyrazolo[3,4-c]pyridin-1-yl}-N-[4-(trifluoromethyl)pyridin-2-yl]benzamide]
9.29 | COCCC(=O)N1CCC[C@@H](c2nn(-c3ccc(C(=O)Nc4cc(C(F)(F)F)ccn4)cc3)c3c(N)nccc23)C1 [Example 16, 4-{7-amino-3-[(3R)-1-(3-methoxypropanoyl)piperidin-3-yl]-1H-pyrazolo[3,4-c]pyridin-1-yl}-N-[4-(trifluoromethyl)pyridin-2-yl]benzamide]
8.54 | CC(=O)N1CCO[C@@H](c2nn(-c3ccc(C(=O)Nc4cc(C(F)(F)F)ccn4)cc3)c3c(N)nccc23)C1 [Example 2, 4-{3-[(2R)-4-acetylmorpholin-2-yl]-7-amino-1H-pyrazolo[3,4-c]pyridin-1-yl}-N-[4-(trifluoromethyl)pyridin-2-yl] benzamide]
